{
  "source": "paper PMC4928820",
  "about": "(Molecular Pharmaceutics, 2015)",
  "key": {"[1]": {"conditions": "water-saturated tricaprylin compared to dry tricaprylin ref 34; cited from earlier work"}, "[2]": {"assay_type": "physicochemical", "conditions": "37 °C, mean ± SD, triplicate; for Thermodynamic solubility in Carbitol: cosolvent; for Thermodynamic solubility in Maisine 35-1: long-chain mono-; for Thermodynamic solubility in Maisine 35-1 / Thermodynamic solubility in Capmul MCM EP: di-, triglyceride; for Thermodynamic solubility in Capmul MCM EP: medium-chain mono-; for Thermodynamic solubility in Cremophor EL: surfactant (≤3% w/w water)"}},
  "data": [
    {"compound": "CNC(=O)c1ccccc1", "note": "[N-methylbenzamide]", "values": [
      {"measurement": "Increase of solubility", "setting": "[1]", "result": "more than 50%"}
    ]},
    {"compound": "Cc1cccc(Nc2ccccc2C(=O)O)c1C", "note": "[mefenamic acid]", "values": [
      {"measurement": "Thermodynamic solubility in Carbitol", "setting": "[2]", "result": "43.6 ± 1.52", "unit": "mg/g"},
      {"measurement": "Thermodynamic solubility in Maisine 35-1", "setting": "[2]", "result": "5.38 ± 0.40", "unit": "mg/g"},
      {"measurement": "Thermodynamic solubility in Capmul MCM EP", "setting": "[2]", "result": "9.63 ± 0.40", "unit": "mg/g"},
      {"measurement": "Thermodynamic solubility in Cremophor EL", "setting": "[2]", "result": "30.7 ± 0.89", "unit": "mg/g"}
    ]},
    {"compound": "COC(=O)Nc1nc2ccc(Sc3ccccc3)cc2[nH]1", "note": "[fenbendazole]", "values": [
      {"measurement": "Thermodynamic solubility in Carbitol", "setting": "[2]", "result": "4.13 ± 0.28", "unit": "mg/g"},
      {"measurement": "Thermodynamic solubility in Maisine 35-1", "setting": "[2]", "result": "0.69 ± 0.11", "unit": "mg/g"},
      {"measurement": "Thermodynamic solubility in Capmul MCM EP", "setting": "[2]", "result": "1.28 ± 0.09", "unit": "mg/g"},
      {"measurement": "Thermodynamic solubility in Cremophor EL", "setting": "[2]", "result": "2.07 ± 0.09", "unit": "mg/g"}
    ]}
  ]
}
